# Test results from the supplement of paper PMC13380429.
# Assays:
# Conditions in all cases: 72 h
# [1] = tested on: Caco-2; test: drug sensitivity score (DSS) for viability; higher = more toxic; extreme values may be limits of the assay
# [2] = tested on: Calu-3; test: as above
# [3] = tested on: Vero E6; test: as above
# [4] = tested on: HepG2; test: as above
# [5] = tested on: Caco-2; test: relative viability EC50 (midpoint between 100% and the lowest measured viability); higher = less toxic
# [6] = tested on: Calu-3; test: as above
# [7] = tested on: Vero E6; test: as above
# [8] = tested on: HepG2; test: as above
# [9] = tested on: Caco-2; test: cell viability relative to DMSO; higher = less toxic
# [10] = tested on: Calu-3; test: as above
# [11] = tested on: Vero E6; test: as above
# [12] = tested on: HepG2; test: as above
# [13] = tested on: U2OS; test: drug sensitivity score (DSS) for viability; higher = more toxic; extreme values may be limits of the assay
# [14] = tested on: U2OS; test: relative viability EC50 (midpoint between 100% and the lowest measured viability); higher = less toxic
# [15] = tested on: U2OS; test: cell viability relative to DMSO; higher = less toxic
Structure (SMILES),drug sensitivity score [1],drug sensitivity score [2],drug sensitivity score [3],drug sensitivity score [4],relative viability EC50 [5],relative viability EC50 [6],relative viability EC50 [7],relative viability EC50 [8],cell viability ([9]; 1 nM),cell viability ([9]; 10 nM),cell viability ([9]; 100 nM),cell viability ([9]; 1000 nM),cell viability ([9]; 10000 nM),cell viability ([10]; 1 nM),cell viability ([10]; 10 nM),cell viability ([10]; 100 nM),cell viability ([10]; 1000 nM),cell viability ([10]; 10000 nM),cell viability ([11]; 1 nM),cell viability ([11]; 10 nM),cell viability ([11]; 100 nM),cell viability ([11]; 1000 nM),cell viability ([11]; 10000 nM),cell viability ([12]; 1 nM),cell viability ([12]; 10 nM),cell viability ([12]; 100 nM),cell viability ([12]; 1000 nM),cell viability ([12]; 10000 nM),drug sensitivity score [13],relative viability EC50 [14],cell viability ([15]; 1 nM),cell viability ([15]; 10 nM),cell viability ([15]; 100 nM),cell viability ([15]; 1000 nM),cell viability ([15]; 10000 nM)
CC(=O)Nc1ccc(OC(C)=O)cc1 [diacetamate],0,0.2,0,0,> 10 µM,> 10 µM,> 10 µM,> 10 µM,91.8%,103%,94.7%,101%,111%,99.1%,99.7%,99.7%,101%,84.9%,96.1%,96%,94.3%,84.8%,101%,114%,98.5%,110%,101%,105%,–,–,–,–,–,–,–
CCc1[nH]c(=O)[nH]c1C(=O)c1ccncc1 [piroximone],0,0,0,–,> 10 µM,> 10 µM,> 10 µM,–,96.4%,95.2%,88.7%,99.4%,94.6%,103%,110%,99.3%,95.2%,89.3%,99%,94.6%,96.8%,93.3%,94.6%,–,–,–,–,–,0,> 10 µM,93.5%,103%,94.6%,102%,94.1%
CCCCCCCCCCCCCCCC[N+](C)(C)CCN(Cc1ccc(OC)cc1)c1ncccn1 [thonzonium],8.3,7.9,0.4,3.9,1.69 µM,2.04 µM,> 10 µM,3.41 µM,106%,98.1%,110%,80.3%,7.2%,102%,100%,96.3%,85.8%,-0.1%,96%,97.8%,94.6%,97.5%,85.6%,94.4%,101%,93.8%,103%,24.4%,–,–,–,–,–,–,–
N#Cc1cc(-c2n[nH]c(-c3ccncc3)n2)ccn1 [topiroxostat],0,0,0,0,> 10 µM,> 10 µM,> 10 µM,> 10 µM,98.2%,92.9%,89.6%,95.9%,107%,103%,87.4%,107%,95.1%,118%,102%,103%,101%,102%,99.8%,102%,91.1%,98.8%,100%,96.1%,–,–,–,–,–,–,–
CCn1c(=O)c(-c2cc[nH]n2)cc2c(C)nc(N)nc21 [voxtalisib],5.2,6.8,6.1,5.4,1.61 µM,1.17 µM,1.55 µM,1.84 µM,102%,96.7%,93.5%,86.5%,42.9%,95%,91.9%,91%,71.9%,32.6%,104%,104%,91.2%,80.8%,33.5%,108%,106%,101%,88.5%,35.4%,3.1,–,99.3%,97.3%,97.9%,93.1%,60.3%
